For series [1], the system named is MNU induced bladder tumors. As to conditions: intravesical, Fisher 344 rats; Graham et al. 1995; cited from earlier work.
Series [2] has as its system MNU-induced rat bladder transitional cell carcinoma. The method, then:
(1972) and modified by Steinberg, et al. (1990). Animals: Four to five week old female Fisher 344 rats (avg. Wt. 200 g) were used in all cohorts on this trial. All animals received 5 mg/200 g body weight intraperitoneal gentamicin (50 mg/ml) as antibacterial prophylaxis one hour prior to each bladder catheterization. MNU dose and schedule: 100 mg of MNU (Sigma, St. Louis, Mo.) were dissolved in 10 ml of sodium acetate (CH3 COONa), pH of a solution=6.5. Five mg/200 g body weight of this solution (0.5 ml) was instilled intravesically via a 22-gauge teflon angiocatheter under a continuous flow hood within 45 minutes of preparing the MNU solution every other week for a total of 4 doses (8 weeks). […] (Mol. Wt. 8000 Da.-Sigma, St. Louis, Mo.) Beginning at week four, 20 of the animals received intravesical dextran sulfate, 10 mg/200 g body weight twice a week for four weeks. The remaining 20 animals received saline on the same schedule. Tissue Preparations: The urinary bladder were excised, filled and fixed with 10% neutral buffered formalin, and then embedded in paraffin. The bladders were sectioned every 2 mm and 5-micron sections were stained with hematoxylin and eosin.

For series [3], the system named is human urinary bladder carcinoma cells. As to conditions: Sorimachi et al. 1992; cited from earlier work.
The test system of series [4] is epidermal growth factor (EGF) binding to T24 cells. Put plainly: 125I-EGF growth factor receptor binding to T24 cells. Further details: species or system human. The method, then: Method: Growth factor receptor binding studies were performed using T24 high grade human bladder tumor cell line. Cells were incubated with […] ^125 I-Insulin like growth factor-1 (^125 I-IGF-1) or ^125 I-epidermal growth factor (^125 I-EGF) and varying concentration of unlabeled growth factor or dextran sulfate in 1 ml of binding assay buffer. After incubation at 4° C. for 10 to 12 hours, the assay buffer was removed and the cultures washed three times. The cells and receptor-bound growth factors were then solubilized in 1 ml of […] before being quantitated in a gamma radiation counter.

The subject of series [5] is T24 cells. Description: Proliferation of human transitional cell carcinoma cultures (crystal violet, A540 ratio day one/day eight). Type of series: cell-based. As to conditions: 10 mM dextran sulfate; day eight; p<0.0001. The method, then: Method: Cultures of two urothelial carcinoma cell lines, HT 1376 and T24 were obtained from the American Type Culture Collection and propagated in Dulbecco's Modified Eagles Medium (DMEM) supplemented with 10% fetal bovine serum (FBS). The HT1376 and T24 cells were plated into 96 well polystyrene trays in 0.1 ml of medium at densities of 5000 and 2500 cells/wells respectively. After overnight incubation, medium was replaced with DMEM containing various FBS and dextran sulfate concentrations. Each FBS and dextran sulfate concentration was tested in quadruplicated wells. On day eight the cells were fixed with glutaraldehyde, stained with 0.1% crystal violet and absorbance at 540 nm was quantitated in a (Bio-Rad) microplate spectrophotometer.
Results: The ratio of A540 values in day one and day eight was used to indicate cell proliferation.

Take `Cc1ccc(C(=O)Nc2ccc(S(=O)(=O)O)c3cc(S(=O)(=O)O)cc(S(=O)(=O)O)c23)cc1NC(=O)c1cccc(NC(=O)Nc2cccc(C(=O)Nc3cc(C(=O)Nc4ccc(S(=O)(=O)O)c5cc(S(=O)(=O)O)cc(S(=O)(=O)O)c45)ccc3C)c2)c1` [Suramin]: the “in-vivo action on MNU induced bladder tumors” value in series [1] is on record as “intravesical inhibition of MNU induced bladder tumors”.
Turning to dextran sulfate, the “prevention of development of transitional cell carcinoma of the bladder” value in series [2] (intravesical, 10 mg/200 g body weight twice a week for four weeks, from week four) is “effectively prevents the development of transitional cell carcinoma of the bladder”. For the same molecule, the “side effects or histopathologic changes in urinary bladders” value in series [2] (rat, in vivo) is “did not cause any significant side effects or histopathologic changes”. The “inhibitory effect on growth of human urinary bladder carcinoma cells in culture” value in series [3] is on record as “failed to observe an inhibitory effect”. Also, the figures for the EGF binding in series [4] (dextran sulfate 10 mM) and in series [4] (dextran sulfate 1-2 mM) were 115 % of control and 80 % of control binding, respectively. Moreover, the “T24 cell proliferation inhibition” value in series [5] is “completely inhibited”.

The values are drawn from patent publication US6037332A, “Method of urinary bladder instillation” (Emory University, priority 1997, dated 2000).
